Measured values: patent EP0465323A1, “Pyrimidin derivatives, angiotensin II receptor antagonists, their process of preparation and pharmaceutical compositions containing them” (LABORATOIRES UPSA, priority 1990, dated 1992)

Test system: récepteurs surrénaliens de l'angiotensine II
Assay: Displacement of radioligand [125I]-SIAII specifically bound to rat adrenal angiotensin II receptors
Type: binding
Conditions: rat adrenal homogenate, 60 min at 25°C
Description: L'affinité des produits des exemples pour les récepteurs de l'angiotensine Il est évaluée par technique de déplacement d'un radioligand spécifiquement fixé sur les récepteurs surrénaliens de l'angiotensine II, chez le rat.
Une aliquote d'un homogénat de surrénales de rat incube en présence d'une concentration unique de [^125| ] - SIAII (Sar^1, Tyr^4, lle^8- angiotensine II), antagoniste des récepteurs de l'angiotensine II, et de deux concentrations d'agents compétiteurs (10^-5 M, 10-^7 M), durant 60 min à 25°C.
La réaction est achevée par ajout de tampon, puis rapide filtration à travers des filtres de papier de verre. La liaison non spécifique est déterminée en présence d'angiotensine II.
Les résultats sont exprimés, pour les concentrations testées, en pourcentage de déplacement du radioligand spécifiquement fixé sur les récepteurs surrénaliens de l'angiotensine II.

SMILES	% de déplacement du ligand marqué (competitor 1E-5M, 10 µM) [%]	% de déplacement du ligand marqué (competitor 1E-7M, 0.1 µM) [%]
CCCc1nc(C)n(CC(=O)OCC)c(=O)c1Cc1ccc(NC(=O)c2ccccc2S(=O)(=O)O)cc1 [Exemple 13]	96	64
CCCc1nc(C)n(CC(=O)O)c(=O)c1Cc1ccc(NC(=O)c2c(Cl)ccc(Cl)c2C(=O)O)cc1 [Exemple 14, Acide [n-propyl-4 méthyl-2 oxo-6 [(carboxy-2 dichloro-3,6-phényl)carbonylamino-4 phénylméthyl]-5 pyrimidine-yl-1 (6H)-] acétique]	81	38
CCCc1nc(C)nc(OCCO)c1Cc1ccc(-c2ccccc2C(=O)O)cc1 [Exemple 16, Acide [n-propyl-6 méthyl-2 hydroxy éthyloxy-4 pyrimidine-yl-5] méthyl-4' biphényl-2 carboxylique]	65	31
CCCc1nc(C)nc(OC(=O)N(C)C)c1Cc1ccc(NC(=O)c2ccccc2S(=O)(=O)O)cc1 [Exemple 27, Acide [[n-propyl-6 méthyl-2 (N,N-diméthyl amino carbonyloxy)-4 pyrimidine-yl-5]méthylphényl-yl-4] amino carbonyl-2 benzène sulfonique]	76	20
CCCc1nc(C)nc(OC)c1Cc1ccc(-c2ccccc2-c2nn[nH]n2)cc1 [Exemple 31, n-Propyl-6 méthy1-2 méthoxy-4 [(tétrazol-yl-5)-2' biphényl-yl-4] méthyl-5 pyrimidine]	71	51
CCCc1nc(C)n(CC(=O)OCC)c(=O)c1Cc1ccc(-c2ccccc2-c2nn[nH]n2)cc1 [Exemple 32, [n-Propyl-4 méthyl-2 oxo-6 [(tétrazol-yl-5)-2' biphényl-yl-4]méthyl-5 pyrimidine-yl-1 (6H)-] acétate d'éthyle]	94	67
CCCc1nc(C)nc(SCC(=O)OCC)c1Cc1ccc(-c2ccccc2-c2nn[nH]n2)cc1 [Exemple 33, [n-Propyl-6 méthyl-2 [(tétrazol-yl-5)-2' biphényl-yl-4]méthyl-5 pyrimidine-yl-4] mercapto acétate d'éthyle]	69	62
CCCCc1nc(C)nc(SCCO)c1Cc1ccc(NC(=O)c2ccccc2S(=O)(=O)O)cc1 [Exemple 55, Acide [(n-butyl-6 méthyl-2 hydroxyéthylmercapto-4 pyrimidine-yl-5)méthylphényl-yl-4] amino carbonyl-2 benzène sulfonique]	86	60
CCCCc1nc(C)nc(SCC(=O)OCC)c1Cc1ccc(NC(=O)c2ccccc2S(=O)(=O)O)cc1 [Exemple 61, Acide [[n-Butyl-6 Méthyl-2 (éthoxycarbonyl méthyl thio)-4 pyrimidine-yl-5]méthylphényl-yl-4] amino carbonyl-2 benzène sulfonique]	96	63
CCCCc1nc(C(C)C)nc(SCC(=O)OCC)c1Cc1ccc(NC(=O)c2ccccc2S(=O)(=O)O)cc1 [Exemple 76, Acide [[n-butyl-6 isopropyl-2 (éthoxy carbonyl méthyl thio)-4 pyrimidine-yl-5]méthylphényl-yl-4] amino carbonyl-2 benzène sulfonique]	93	37
CCCCc1nc(C(C)C)nc(SCCO)c1Cc1ccc(NC(=O)c2ccccc2S(=O)(=O)O)cc1 [Exemple 78, Acide [[n-butyl-6 isopropyl-2 (hydroxy éthyl thio)-4 pyrimidine-yl-5]méthylphényl-yl-4] amino carbonyl-2 benzène sulfonique]	74	41

Next, values leading:

% de déplacement du ligand marqué (competitor 1E-5M, 10 µM) [%]	% de déplacement du ligand marqué (competitor 1E-7M, 0.1 µM) [%]	SMILES
93	62	CCCc1nc(C)nc(SCC(=O)OCC)c1Cc1ccc(NC(=O)c2ccccc2S(=O)(=O)O)cc1 [Exemple 24, Acide [[n-Propyl-6 méthyl-2 (éthoxycarbonyl méthyl mercapto)-4 pyrimidine-yl-5]méthylphényl-yl-4] amino carbonyl-2 benzène sulfonique]
84	65	CCCc1nc(C)nc(SCCO)c1Cc1ccc(NC(=O)c2ccccc2S(=O)(=O)O)cc1 [Exemple 54, Acide [(n-Propyl-6 méthyl-2 hydroxyéthylmercapto-4 pyrimidine-yl-5)methylphenyl-yl-4] amino carbonyl-2 benzène sulfonique]
86	59	CCCc1nc(C)nc(N2CCOCC2)c1Cc1ccc(NC(=O)c2ccccc2S(=O)(=O)O)cc1 [Exemple 56, Acide [[n-Propyl-6 méthyl-2 (morpholine-yl-1)-4 pyrimidine-yl-5]méthylphényl-yl-4] amino carbonyl-2 benzène sulfonique]
80	69	CCCCc1nc(C)nc(N)c1Cc1ccc(NC(=O)c2ccccc2S(=O)(=O)O)cc1 [Exemple 57, Acide [(n-Butyl-6 méthyl-2 amino-4 pyrimidine-yl-5)méthylphényl-yl-4] amino carbonyl-2 benzène sulfonique]
78	53	CCCc1nc(C)nc(N2CCN(c3ccccc3OC)CC2)c1Cc1ccc(NC(=O)c2ccccc2S(=O)(=O)O)cc1 [Exemple 58, Acide [[n-Propyl-6 méthyl-2 ((méthoxy-2 phényl)pipérazine-yl-4)-4 pyrimidine-yl-5]méthylphényl-yl-4] amino carbonyl-2 benzène sulfonique]
89	57	CCCc1nc(C)nc(SC)c1Cc1ccc(NC(=O)c2ccccc2S(=O)(=O)O)cc1 [Exemple 59, Acide [[n-Propyl-6 méthyl-2 méthylthio-4 pyrimidine-yl-5]méthylphényl-yl-4] amino carbonyl-2 benzène sulfonique]
72	0	CCCCc1nc(-c2ccccc2)nc(SCC(=O)OCC)c1Cc1ccc(NC(=O)c2ccccc2S(=O)(=O)O)cc1 [Exemple 75, Acide [[n-butyl-6 phényl-2 (éthoxy carbonyl méthyl thio)-4 pyrimidine-yl-5]méthylphényl-yl-4] amino carbonyl-2 benzène sulfonique]
63	4	CCCCc1nc(-c2ccccc2)nc(SCCO)c1Cc1ccc(NC(=O)c2ccccc2S(=O)(=O)O)cc1 [Exemple 77, Acide [[n-butyl-6 phényl-2 (hydroxy éthyl thio)-4 pyrimidine-yl-5]méthylphényl-yl-4] amino carbonyl-2 benzène sulfonique]
